Patent publication US20260092071A1, “COMPOUNDS AND COMPOSITIONS AS SMARCA2/4 DEGRADERS AND USES THEREOF” (REGENTS OF THE UNIVERSITY OF MICHIGAN, priority 2022, published 2026)

Key:
[1] = target: SMARCA2 (Homo sapiens, UniProt P51531); experiment: HiBit assay in engineered HT1080 CRISPR knock-in cell, 6 hrs (B series), SMARCA2; assay type: cell-based; settings: 6 hrs incubation; for DC50: HT1080 CRISPR knock-in cells, read-out: SMARC A2 HT1080 HiBit DC50; for Dmax: HT-1080, HT1080 CRISPR knock-in cells, read-out: SMARC A2 HT1080 HiBit Dmax (%)
Summary of the method: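 HT1080 CRISPR knock-in cells carrying HiBiT-tagged SMARCA2 seeded onto compound (0.1% DMSO) at 2000 cells/well. Incubated 6 h at 37 °C, 5% CO2, then lysed with Nano-Glo HiBiT lytic reagent containing LgBiT, and luminescence read.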

[2] = target: SMARCA4 (Homo sapiens, UniProt P51532); experiment: HiBit assay in engineered HT1080 CRISPR knock-in cell, 6 hrs (B series), SMARCA4; assay type: cell-based; settings: 6 hrs incubation; for DC50: HT1080 CRISPR knock-in cells, read-out: SMARC A4 HT1080 HiBit DC50; for Dmax: HT-1080, HT1080 CRISPR knock-in cells, read-out: SMARC A4 HT1080 HiBit Dmax(%)
Protocol: The HiBit assay was performed using engineered HT1080 CRISPR knock-in cell utilizing the Nano-Glo HiBiT Lytic Detection System from Promega, Cat #N3040. Compounds were transferred, 25 nL DMSO or test compounds (final DMSO @ 0.1%) to intermediate plates (Corning3570) using ECHO550. Cells were seeded onto compounds at 2000 cells/25 μL/well and incubated for 6 hrs in a tissue culture incubator at 37° C. and 5% CO2. The LgBiT Protein was diluted at 1:100 and the Nano-Glo® HiBIT Lytic Substrate 1:50 into an appropriate volume of room temperature using the Nano-Glo® HiBiT Lytic Buffer. At the end of compound incubation time, 15 ul of the detection reagent was added to each well (without LgBiT for negative control wells) using the Thermo Scientific multidrop combi. The plate was shaken for 10 mins at RT using Combi. After briefly centrifugation (2000 rpm 1 mins), plate was read on Envision (Ultrasensitive luminescence model).

Sequence of SMARCA2 (P51531 whole entry): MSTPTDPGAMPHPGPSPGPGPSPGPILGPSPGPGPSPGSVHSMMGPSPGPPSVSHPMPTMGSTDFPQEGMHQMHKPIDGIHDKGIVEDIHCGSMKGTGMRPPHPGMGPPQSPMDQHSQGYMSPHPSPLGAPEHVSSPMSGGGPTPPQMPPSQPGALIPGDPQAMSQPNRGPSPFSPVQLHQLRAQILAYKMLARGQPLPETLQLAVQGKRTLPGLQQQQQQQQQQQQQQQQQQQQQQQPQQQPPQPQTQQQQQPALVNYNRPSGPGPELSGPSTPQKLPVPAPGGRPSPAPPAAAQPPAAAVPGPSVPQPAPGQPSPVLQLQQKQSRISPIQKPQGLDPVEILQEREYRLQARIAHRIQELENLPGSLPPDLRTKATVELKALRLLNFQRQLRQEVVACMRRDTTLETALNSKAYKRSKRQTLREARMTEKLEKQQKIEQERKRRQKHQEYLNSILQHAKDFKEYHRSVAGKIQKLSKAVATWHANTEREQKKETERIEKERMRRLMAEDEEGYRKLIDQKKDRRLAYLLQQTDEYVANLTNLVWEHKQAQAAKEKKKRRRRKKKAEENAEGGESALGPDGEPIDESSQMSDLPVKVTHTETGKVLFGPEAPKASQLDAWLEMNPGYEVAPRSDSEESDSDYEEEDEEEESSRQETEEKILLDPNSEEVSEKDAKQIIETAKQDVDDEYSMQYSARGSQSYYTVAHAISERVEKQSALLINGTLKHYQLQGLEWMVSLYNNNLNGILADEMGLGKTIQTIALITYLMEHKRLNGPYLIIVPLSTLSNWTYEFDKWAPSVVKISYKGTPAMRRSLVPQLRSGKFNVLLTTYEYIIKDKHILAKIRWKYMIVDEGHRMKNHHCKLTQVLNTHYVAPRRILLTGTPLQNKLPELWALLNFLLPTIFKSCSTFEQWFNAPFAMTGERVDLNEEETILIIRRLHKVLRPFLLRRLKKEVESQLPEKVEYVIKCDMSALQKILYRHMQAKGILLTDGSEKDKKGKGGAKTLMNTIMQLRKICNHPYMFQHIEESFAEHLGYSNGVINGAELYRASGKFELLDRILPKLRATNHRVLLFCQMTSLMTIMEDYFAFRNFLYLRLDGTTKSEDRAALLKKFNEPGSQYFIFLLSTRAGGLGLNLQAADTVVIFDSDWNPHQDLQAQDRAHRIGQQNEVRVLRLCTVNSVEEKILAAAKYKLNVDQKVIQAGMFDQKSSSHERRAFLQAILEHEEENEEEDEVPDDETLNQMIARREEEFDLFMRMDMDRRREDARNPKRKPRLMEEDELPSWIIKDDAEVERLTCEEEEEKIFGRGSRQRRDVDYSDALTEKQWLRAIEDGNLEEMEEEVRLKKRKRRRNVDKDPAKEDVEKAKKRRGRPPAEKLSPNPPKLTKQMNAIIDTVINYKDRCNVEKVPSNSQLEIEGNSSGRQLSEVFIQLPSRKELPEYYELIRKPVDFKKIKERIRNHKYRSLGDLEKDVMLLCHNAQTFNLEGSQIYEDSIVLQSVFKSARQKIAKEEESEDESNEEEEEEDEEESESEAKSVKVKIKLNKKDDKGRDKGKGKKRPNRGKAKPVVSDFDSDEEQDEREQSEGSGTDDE
Sequence of SMARCA4 (P51532 whole entry): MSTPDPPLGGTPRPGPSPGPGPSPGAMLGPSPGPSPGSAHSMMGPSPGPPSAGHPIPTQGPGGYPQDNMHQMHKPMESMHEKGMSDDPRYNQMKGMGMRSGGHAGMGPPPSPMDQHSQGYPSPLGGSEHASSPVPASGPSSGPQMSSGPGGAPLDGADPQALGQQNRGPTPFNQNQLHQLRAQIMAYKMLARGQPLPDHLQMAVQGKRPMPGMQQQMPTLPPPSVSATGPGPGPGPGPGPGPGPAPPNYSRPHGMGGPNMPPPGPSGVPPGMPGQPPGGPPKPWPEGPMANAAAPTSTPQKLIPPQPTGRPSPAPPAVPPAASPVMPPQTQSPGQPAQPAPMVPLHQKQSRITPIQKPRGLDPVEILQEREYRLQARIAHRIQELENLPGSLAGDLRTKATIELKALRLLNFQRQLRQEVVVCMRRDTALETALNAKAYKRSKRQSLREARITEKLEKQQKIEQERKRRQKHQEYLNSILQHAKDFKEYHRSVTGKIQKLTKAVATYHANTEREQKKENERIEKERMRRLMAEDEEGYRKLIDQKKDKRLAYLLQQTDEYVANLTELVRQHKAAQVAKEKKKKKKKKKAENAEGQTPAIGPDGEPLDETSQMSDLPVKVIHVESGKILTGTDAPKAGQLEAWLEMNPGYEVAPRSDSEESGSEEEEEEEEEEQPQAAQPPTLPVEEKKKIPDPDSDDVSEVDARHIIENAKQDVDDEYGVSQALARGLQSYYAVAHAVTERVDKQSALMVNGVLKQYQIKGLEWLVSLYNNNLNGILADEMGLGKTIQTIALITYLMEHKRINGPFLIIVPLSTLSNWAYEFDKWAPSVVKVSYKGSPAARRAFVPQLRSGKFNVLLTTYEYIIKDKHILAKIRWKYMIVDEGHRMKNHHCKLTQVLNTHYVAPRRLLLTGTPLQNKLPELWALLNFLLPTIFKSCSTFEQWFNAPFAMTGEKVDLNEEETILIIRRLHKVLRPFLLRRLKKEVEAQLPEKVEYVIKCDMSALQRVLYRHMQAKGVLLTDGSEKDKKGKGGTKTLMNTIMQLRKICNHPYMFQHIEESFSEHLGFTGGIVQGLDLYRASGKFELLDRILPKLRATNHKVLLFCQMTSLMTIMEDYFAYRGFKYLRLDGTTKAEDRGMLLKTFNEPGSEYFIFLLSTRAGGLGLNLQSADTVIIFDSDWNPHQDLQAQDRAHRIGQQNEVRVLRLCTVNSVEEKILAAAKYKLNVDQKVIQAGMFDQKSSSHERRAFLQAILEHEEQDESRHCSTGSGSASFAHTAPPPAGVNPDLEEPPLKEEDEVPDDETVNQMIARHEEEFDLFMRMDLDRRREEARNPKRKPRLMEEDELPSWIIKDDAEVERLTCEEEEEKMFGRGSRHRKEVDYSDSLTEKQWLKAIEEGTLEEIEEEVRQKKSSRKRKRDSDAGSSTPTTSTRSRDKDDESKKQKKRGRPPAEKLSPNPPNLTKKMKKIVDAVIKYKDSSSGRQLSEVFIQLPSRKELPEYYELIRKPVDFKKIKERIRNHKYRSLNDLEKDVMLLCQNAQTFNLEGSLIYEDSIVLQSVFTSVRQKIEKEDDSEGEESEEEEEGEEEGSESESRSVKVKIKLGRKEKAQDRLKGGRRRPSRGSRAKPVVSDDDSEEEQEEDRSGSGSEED

DC50 [1] [nM]	Dmax [1] [%]	DC50 [2] [nM]	Dmax [2] [%]	Structure (SMILES)
< 100	> 90	< 100	> 90	Cc1ncsc1-c1ccc([C@H](C)NC(=O)[C@@H]2C[C@@H](O)CN2C(=O)[C@H](C(C)C)n2cc(CCCN3CCC(c4ccc5c(c4)C(C)(C)c4nc(=O)c6c(Cl)cccc6n4-5)CC3)nn2)cc1 [Compound B24, (2S,4R)-1-((S)-2-(4-(3-(4-(4-chloro-7,7-dimethyl-5-oxo-5,7-dihydroindolo[1,2-a]quinazolin-9-yl)piperidin-1-yl)propyl)-1H-1,2,3-triazol-1-yl)-3-methylbutanoyl)-4-hydroxy-N—((S)-1-(4-(4-methylthiazol-5-yl)phenyl)ethyl)pyrrolidine-2-carboxamide]
< 100	> 90	< 100	> 90	Cc1ncsc1-c1ccc([C@H](C)NC(=O)[C@@H]2C[C@@H](O)CN2C(=O)[C@@H](c2cc(OCCCN3CCC(c4ccc5c(c4)-n4c(nc(=O)c6c(Cl)cccc64)C5(C)C)CC3)no2)C(C)C)cc1 [Compound B26, (2S,4R)-1-((R)-2-(3-(3-(4-(4-chloro-7,7-dimethyl-5-oxo-5,7-dihydroindolo[1,2-a]quinazolin-10-yl)piperidin-1-yl)propoxy)isoxazol-5-yl)-3-methylbutanoyl)-4-hydroxy-N-((S)-1-(4-(4-methylthiazol-5-yl)phenyl)ethyl)pyrrolidine-2-carboxamide]
< 100	> 90	< 100	> 90	Cc1ncsc1-c1ccc([C@H](C)NC(=O)[C@@H]2C[C@@H](O)CN2C(=O)[C@H](C(C)C)n2cc(CN3CCC(c4ccc5c(c4)C(C)(C)c4nc(=O)c6c(Cl)cccc6n4-5)CC3)nn2)cc1 [Compound B29, (2S,4R)-1-((S)-2-(4-((4-(4-chloro-7,7-dimethyl-5-oxo-5,7-dihydroindolo[1,2-a]quinazolin-9-yl)piperidin-1-yl)methyl)-1H-1,2,3-triazol-1-yl)-3-methylbutanoyl)-4-hydroxy-N—((S)-1-(4-(4-methylthiazol-5-yl)phenyl)ethyl)pyrrolidine-2-carboxamide]
< 100	> 90	< 100	< 50	Cc1ncsc1-c1ccc([C@H](C)NC(=O)[C@@H]2C[C@@H](O)CN2C(=O)[C@@H](c2cc(OCCN3CCC(c4ccc5c(c4)-n4c(nc(=O)c6c(Cl)cccc64)C5(C)C)CC3)no2)C(C)C)cc1 [Compound B32, (2S,4R)-1-((R)-2-(3-(2-(4-(4-chloro-7,7-dimethyl-5-oxo-5,7-dihydroindolo[1,2-a]quinazolin-10-yl)piperidin-1-yl)ethoxy)isoxazol-5-yl)-3-methylbutanoyl)-4-hydroxy-N-((S)-1-(4-(4-methylthiazol-5-yl)phenyl)ethyl)pyrrolidine-2-carboxamide]
< 100	70 to 90	< 100	< 50	Cc1ncsc1-c1ccc([C@H](C)NC(=O)[C@@H]2C[C@@H](O)CN2C(=O)[C@H](C(C)C)n2cc(CCN3CCC(c4ccc5c(c4)-n4c(nc(=O)c6c(Cl)cccc64)C5(C)C)CC3)nn2)cc1 [Compound B36, (2S,4R)-1-((S)-2-(4-(2-(4-(4-chloro-7,7-dimethyl-5-oxo-5,7-dihydroindolo[1,2-a]quinazolin-10-yl)piperidin-1-yl)ethyl)-1H-1,2,3-triazol-1-yl)-3-methylbutanoyl)-4-hydroxy-N-((S)-1-(4-(4-methylthiazol-5-yl)phenyl)ethyl)pyrrolidine-2-carboxamide]

Second part, the compound before the results:

Structure (SMILES)	DC50 [1] [nM]	Dmax [1] [%]	DC50 [2] [nM]	Dmax [2] [%]
Cc1ncsc1-c1ccc([C@H](CC(=O)NCCCN2CCC(c3ccc4c(c3)-n3c(nc(=O)c5c(Cl)cccc53)C4(C)C)CC2)NC(=O)[C@@H]2C[C@@H](O)CN2C(=O)[C@@H](NC(=O)C2(F)CC2)C(C)(C)C)cc1 [Compound B25, (2S,4R)-N-((S)-3-((3-(4-(4-chloro-7,7-dimethyl-5-oxo-5,7-dihydroindolo[1,2-a]quinazolin-10-yl)piperidin-1-yl)propyl)amino)-1-(4-(4-methylthiazol-5-yl)phenyl)-3-oxopropyl)-1-((S)-2-(1-fluorocyclopropane-1-carboxamido)-3,3-dimethylbutanoyl)-4-hydroxypyrrolidine-2-carboxamide]	501 to 1000	< 50	100 to 500	< 50
Cc1ncsc1-c1ccc([C@H](C)NC(=O)[C@@H]2C[C@@H](O)CN2C(=O)[C@@H](c2cc(OCCCCN3CCC(c4ccc5c(c4)-n4c(nc(=O)c6c(Cl)cccc64)C5(C)C)CC3)no2)C(C)C)cc1 [Compound B27, (2S,4R)-1-((R)-2-(3-(4-(4-(4-chloro-7,7-dimethyl-5-oxo-5,7-dihydroindolo[1,2-a]quinazolin-10-yl)piperidin-1-yl)butoxy)isoxazol-5-yl)-3-methylbutanoyl)-4-hydroxy-N-((S)-1-(4-(4-methylthiazol-5-yl)phenyl)ethyl)pyrrolidine-2-carboxamide]	< 100	> 90	< 100	70 to 90
Cc1ncsc1-c1ccc([C@H](C)NC(=O)[C@@H]2C[C@@H](O)CN2C(=O)[C@@H](c2cc(OC3CCC(CN4CCC(c5ccc6c(c5)C(C)(C)c5nc(=O)c7c(Cl)cccc7n5-6)CC4)CC3)no2)C(C)C)cc1 (stereo partly drawn) [Compound B30, (2S,4R)-1-((R)-2-(3-((4-((4-(4-chloro-7,7-dimethyl-5-oxo-5,7-dihydroindolo[1,2-a]quinazolin-9-yl)piperidin-1-yl)methyl)cyclohexyl)oxy)isoxazol-5-yl)-3-methylbutanoyl)-4-hydroxy-N-((S)-1-(4-(4-methylthiazol-5-yl)phenyl)ethyl)pyrrolidine-2-carboxamide]	< 100	> 90	< 100	> 90
Cc1ncsc1-c1ccc([C@H](CC(=O)NC2CCC(N3CCC(c4ccc5c(c4)-n4c(nc(=O)c6c(Cl)cccc64)C5(C)C)CC3)CC2)NC(=O)[C@@H]2C[C@@H](O)CN2C(=O)[C@@H](NC(=O)C2(F)CC2)C(C)(C)C)cc1 (stereo partly drawn) [Compound B31, (2S,4R)—N—((S)-3-((4-(4-(4-chloro-7,7-dimethyl-5-oxo-5,7-dihydroindolo[1,2-a]quinazolin-10-yl)piperidin-1-yl)cyclohexyl)amino)-1-(4-(4-methylthiazol-5-yl)phenyl)-3-oxopropyl)-1-((S)-2-(1-fluorocyclopropane-1-carboxamido)-3,3-dimethylbutanoyl)-4-hydroxypyrrolidine-2-carboxamide]	100 to 500	70 to 90	100 to 500	< 50
Cc1ncsc1-c1ccc([C@H](CC(=O)NCCCCN2CCC(c3ccc4c(c3)-n3c(nc(=O)c5c(Cl)cccc53)C4(C)C)CC2)NC(=O)[C@@H]2C[C@@H](O)CN2C(=O)[C@@H](NC(=O)C2(F)CC2)C(C)(C)C)cc1 [Compound B33, (2S,4R)—N—((S)-3-((4-(4-(4-chloro-7,7-dimethyl-5-oxo-5,7-dihydroindolo[1,2-a]quinazolin-10-yl)piperidin-1-yl)butyl)amino)-1-(4-(4-methylthiazol-5-yl)phenyl)-3-oxopropyl)-1-((S)-2-(1-fluorocyclopropane-1-carboxamido)-3,3-dimethylbutanoyl)-4-hydroxypyrrolidine-2-carboxamide]	> 1000	< 50	> 1000	< 50
Cc1ncsc1-c1ccc(CNC(=O)[C@@H]2C[C@@H](O)CN2C(=O)[C@@H](NC(=O)C2(F)CC2)C(C)(C)C)c(OCCN2CCC(c3ccc4c(c3)-n3c(nc(=O)c5c(Cl)cccc53)C4(C)C)CC2)c1 [Compound B34, (2S,4R)-N-(2-(2-(4-(4-chloro-7,7-dimethyl-5-oxo-5,7-dihydroindolo[1,2-a]quinazolin-10-yl)piperidin-1-yl)ethoxy)-4-(4-methylthiazol-5-yl)benzyl)-1-((S)-2-(1-fluorocyclopropane-1-carboxamido)-3,3-dimethylbutanoyl)-4-hydroxypyrrolidine-2-carboxamide]	< 100	> 90	< 100	> 90
Cc1ncsc1-c1ccc(CNC(=O)[C@@H]2C[C@@H](O)CN2C(=O)[C@@H](NC(=O)C2(F)CC2)C(C)(C)C)c(OCCCCN2CCC(c3ccc4c(c3)-n3c(nc(=O)c5c(Cl)cccc53)C4(C)C)CC2)c1 [Compound B35, (2S,4R)—N-(2-(4-(4-(4-chloro-7,7-dimethyl-5-oxo-5,7-dihydroindolo[1,2-a]quinazolin-10-yl)piperidin-1-yl)butoxy)-4-(4-methylthiazol-5-yl)benzyl)-1-((S)-2-(1-fluorocyclopropane-1-carboxamido)-3,3-dimethylbutanoyl)-4-hydroxypyrrolidine-2-carboxamide]	< 100	> 90	< 100	> 90
